Reference: patent US20210308196A1, “COMPOSITIONS AND METHODS TO PROMOTE HOST DEFENSE AND STIMULATE, EXPAND, AND/OR RESET T CELL REPERTOIRES” (EVOLVE BIOSYSTEMS, INC., priority 2018, published 2021)

Legend:
[1] = Prevention and/or treatment of severe acute malnutrition (SAM) in infants; assay type: in vivo, human; conditions: 28 days
peanut allergy = experiment: Prevention of human peanut allergy in infants; assay type: in vivo; conditions: high-level colonization vs control group with low-level colonization
Experimental: Infants 2-4 months of age at risk of allergy are recruited and their stool is screened for their Bifidobacterium infantis status (Bifidobacterium infantis abundance). The infants are divided into 2 groups: high Bifidobacterium (desirable infant gut microbiome) and low Bifidobacterium (dysbiotic infant gut microbiome). Low Bifidobacterium stool samples are determined to be low Bifidobacterium or dysbiotic, if their levels of Bifidobacterium are less than a threshold of 10^8 CFU/ug DNA and/or Bifidobacteriaceae family is less than 35% of the total infant gut microbiome as measured by a next generation sequencing, such as 16S RNA sequence. Conversely, a high Bifidobacterium sample or desirable infant gut microbiome has a threshold of 10^8 CFU/ug DNA or greater and/or Bifidobacteriaceae family is greater than 35% of the total infant gut microbiome. Once the infants are screened, the dysbiotic group is randomized into a placebo arm or a supplemented arm receiving activated B. infantis, LNnT and retinol. Infants are fed the supplement or placebo for 16 weeks. At 12 weeks, peanut extract is introduced to the diet for 3 days to infants who are at least 4 months old. Blood samples are taken at 12 weeks, 16 weeks, 20 weeks, 24 weeks, 36 weeks, 40 weeks to analyze TReg cells and IgE. At 9 months, the infants are brought in for a peanut challenge. The incident of allergy between groups is analyzed.

[2] = Metabolomic analysis of infant feces (UPLC-MS/MS); assay type: in vivo, human
Experimental: Fecal samples from infants of Example 1 were evaluated as described below to characterize the fecal metabolome and what effects colonization by this organism may have on the infant's metabolism as a whole.
Sample Preparation: Fecal samples were maintained at −80° C. until processed. Samples were prepared using the automated MicroLab STAR® system from Hamilton Company. Several recovery standards were added prior to the first step in the extraction process for QC purposes. To remove protein, dissociate small molecules bound to protein or trapped in the precipitated protein matrix, and to recover chemically diverse metabolites, proteins were precipitated with methanol under vigorous shaking for 2 min (Glen Mills GenoGrinder 2000) followed by centrifugation. The resulting extract was divided into five fractions: two for analysis by two separate reverse phase (RP)/UPLC-MS/MS methods with positive ion mode electrospray ionization (ESI), one for analysis by RP/UPLC-MS/MS with negative ion mode ESI, one for analysis by HILIC/UPLC-MS/MS with negative ion mode ESI, and one sample was reserved for backup. Samples were placed briefly on a TurboVap® (Zymark) to remove the organic solvent. The sample extracts were stored overnight under nitrogen before preparation for analysis.
Preparation of study-tracking replicates. A small aliquot of each sample was pooled to create a study tracking sample, which was then injected periodically throughout the platform run. Variability detected in the study tracking sample among consistently detected biochemicals can be used to calculate an estimate of overall process and platform variability.
Ultrahigh Performance Liquid Chromatography-Tandem Mass Spectroscopy (UPLC-MS/MS): All methods utilized a Waters ACQUITY ultra-performance liquid chromatography (UPLC) and a Thermo Scientific Q-Exactive high resolution/accurate mass spectrometer interfaced with a heated electrospray ionization (HESI-II) source and Orbitrap mass analyzer operated at 35,000 mass resolution. The sample extract was dried then reconstituted in solvents compatible to each of the four methods. Each reconstitution solvent contained a series of standards at fixed concentrations to ensure injection and chromatographic consistency. One aliquot was analyzed using acidic positive ion conditions, chromatographically optimized for more hydrophilic compounds. In this method, the extract was gradient eluted from a C18 column (Waters UPLC BEH C18-2.1×100 mm, 1.7 μm) using water and methanol, containing 0.05% perfluoropentanoic acid (PFPA) and 0.1% formic acid (FA). Another aliquot was also analyzed using acidic positive ion conditions, however it was chromatographically optimized for more hydrophobic compounds. In this method, the extract was gradient eluted from the same afore mentioned C18 column using methanol, acetonitrile, water, 0.05% PFPA and 0.01% FA and was operated at an overall higher organic content. Another aliquot was analyzed using basic negative ion optimized conditions using a separate dedicated C18 column. The basic extracts were gradient eluted from the column using methanol and water, however with 6.5 mM Ammonium Bicarbonate at pH 8. The fourth aliquot was analyzed via negative ionization following elution from a HILIC column (Waters UPLC BEH Amide 2.1×150 mm, 1.7 μm) using a gradient consisting of water and acetonitrile with 10 mM Ammonium Formate, pH 10.8. The MS analysis alternated between MS and data-dependent MS' scans using dynamic exclusion. The scan range varied slighted between methods but covered 70-1000 m/z.
Data Extraction and Compound Identification: Raw data was extracted, peak-identified and QC processed using Proprietary hardware and software. […]

TNF = experiment: Fecal TNF expression; assay type: in vivo, human; conditions: treatment group
peanut extract allergy = experiment: Prevention of murine peanut allergy; assay type: in vivo, mouse
Text: Germ-free mouse pups are weaned 3-4 weeks after birth and put on a polysaccharide-free diet that is enriched for Vitamin A. As soon as the mouse pups are weaned, they are gavaged with a dysbiotic (no Bifidobacterium sp. and high proteobacteria) human infant microbiome at Day 1 of the experiment. The mice are divided into 4 groups: control, control plus LNnT, B. infantis, and B. infantis plus LNnT. Mice are given the composition for 21 days. All Groups receive B. infantis or placebo every 3 days by gavage. The LNnT or placebo is added to the drinking water for 21 days. Mice receive intragastric gavage of peanut extract on weekly at 5 mg/mouse for sensitization and then 25 mg/mouse at week 5 for challenge with 10 μg of Cholera toxin to elicit anaphylaxis. Control animals receive intragastric gavage with vehicle only. Anaphylaxis symptoms are evaluated, and then mice are necropsied. Plasma samples are collected for evaluation of histamine and IgE concentrations. White blood cells are isolated for PBMC characterization and evaluation of regulatory T cell population expansion using flow cytometry specific for CD4, CD25, Foxp3, Helios, Neuropilin, CD8, CD44, CD62L, IFNgamma, IL-17, and B cell populations, including Bregs and plasma cells using the following markers: IgM, CD5, CD24, CD19, CD19, CD20, CD34, CD38, CD45R, CD78, CD80, and CD138.

[3] = day 28, fold-change active:control
[4] = intervention/control, outlier removed

In the case of “Bifidobacterium longum subsp. infantis EVC001 [B. infantis EVC001]”, the “Incidence of symptoms of acute malnutrition” value [1] is reported as “lower”, the TReg cells [1] is reported as “expansion” and the Weight gain [1] is reported as “better”. For the same substance, the “B cell and plasma cell profiles, vaccine responses” value ([1]; children with SAM / hospitalized infants) was “improved”, the “Inflammatory responses to the food antigen” value (peanut allergy) was “reduces” and the “creatinine Active/Control” value [2, 3] was 1.4. For the same substance, the “gamma-glutamyl-alpha-lysine Active/Control” value [2, 3] was 3.3, the “gamma-glutamyl-epsilon-lysine Active/Control” value [2, 3] was 2.4 and the “gamma-glutamylalanine Active/Control” value [2, 3] was 5.9. For the same substance, the “gamma-glutamylcysteine Active/Control” value [2, 3] was 44.3, the “gamma-glutamylglutamate Active/Control” value [2, 3] was 3.1 and the “gamma-glutamylglutamine Active/Control” value [2, 3] was 1.6. For the same substance, the “gamma-glutamylhistidine Active/Control” value [2, 3] was 10.5, the “gamma-glutamylisoleucine* Active/Control” value [2, 3] was 8.1 and the “gamma-glutamylleucine Active/Control” value [2, 3] was 1.6. For the same substance, the “gamma-glutamylmethionine Active/Control” value [2, 3] was 19.3, the “gamma-glutamylphenylalanine Active/Control” value [2, 3] was 4.2 and the “gamma-glutamylthreonine Active/Control” value [2, 3] was 7.15. The “gamma-glutamyltyrosine Active/Control” value [2, 3] was 2.8, the “gamma-glutamylvaline Active/Control” value [2, 3] was 3.3 and the “Gamma-glutamyl Threonine Int/con” value ([2]; intervention/control) was 5.35. The “N-acetyl Threonine Int/con” value ([2]; intervention/control) was 3.07, the “Threonine Int/con” value ([2]; intervention/control) was 3.21 and the “Gamma-glutamyl Threonine Int/Con with outlier removed” value [2, 4] was 7.15. For the same substance, the “N-acetyl Threonine Int/Con with outlier removed” value [2, 4] was 3.67, the “Threonine Int/Con with outlier removed” value [2, 4] was 4.35 and the Fecal retinol ([2]; versus control) was “significantly reduced”. For the same substance, the “Fecal TNF expression” value (TNF) was “significantly reduced”, the “Inflammatory responses to the food antigen” value (peanut extract allergy; compared to control mice) was “reduce” and the Anaphylaxis (peanut extract allergy; peanut extract challenge with Cholera toxin) was “prevent”.
